We go through two compounds from patent US20240180849A1, “IMMUNOFUNCTIONAL CARRIER, METHODS OF USES, AND COMPOSITION MATTERS AS AN ANTITUMOR IMMUNOTHERAPY” (priority 2021, published 2024).

In data set [1] the test system is splenocytes. The data set can be described thus: Cytotoxicity, propidium iodide staining. The class given is cell-based, mouse. The conditions noted are these: at ≤PTX 2 μg/mL (and 2E′ 10 μg/mL). As for the experimental part: The spleen was collected from healthy or tumor-bearing mice to isolate splenocytes. The collected spleens were cut into pieces and filtered through 70 μm and 40 μm cell strainers sequentially to obtain a single-cell suspension. The cell suspension was incubated with 1 mL ammonium-chloride-potassium (ACK) lysis buffer for 3 min to remove red blood cells.

The subject of data set [2] is BMDCs. Description: Cytotoxicity, propidium iodide staining. The class given is cell-based, mouse. The settings on record: at ≤PTX 2 μg/mL (and 2E′ 10 μg/mL). As for the experimental part:
(§1) Bone marrow-derived dendritic cells (BMDCs) and bone marrow-derived macrophages (BMDMs) were differentiated from mouse bone marrow cells. The bone marrow was collected from the femur of female Balb/c or male C57BL/6 mice (7 weeks old), pipetted several times, and passed through a 100 and 40 μm cell strainer to obtain single-cell suspension. The cells were collected by centrifugation at 500 ref for 8 min, treated with ACK lysis buffer, rinsed, and cultured in Alpha minimum essential medium (MEM-Alpha, ribonucleosides, deoxyribonucleosides, 4 mM L-glutamine, 1 mM sodium pyruvate) supplemented with 100 units/mL penicillin, 100 μg/mL streptomycin, […] β-mercaptoethanol, 20 ng/ml murine GM-CSF and 20% fetal bovine serum. After 7 days, floating or loosely adherent cells were collected by centrifugation and identified as BMDC by APC anti-mouse CD11c antibody labeling. Adherent cells were identified as BMDM by FITC anti-mouse F4/80 antibody labeling.

Data set [3] concerns the target T1, TLR-5 (Mus musculus, UniProt Q9JLF7).
T1 construct: host or cells: HEK-Blue mTLR5 cells
The data set can be described thus: TLR-5 activation assay, HEK-Blue mTLR5 reporter cells (SEAP). Format: cell-based. The settings on record: TLR reporter cell line, colorimetric SEAP. As for the experimental part:
(§2) TLR-5 activation was tested with HEK-Blue™ mTLR5 Cells, TLR-5 reporter cells (Invitrogen, Carlsbad, CA). The TLR-4 reporter cells were plated in a 96 well plate at a density of 100,000 cells per well in RPMI medium. The TLR-5 reporter cells were plated in a 96 well plate with a density of 25,000 cells per well in HEK-Blue™ Detection medium. […] The supernatant was collected for secreted embryonic alkaline phosphatase (SEAP) assay. The absorbance of SEAP was measured at 620 nm.

Data set [4] has as its system BMDCs and BMDMs. The data set can be described thus: Cytokine production from BMDC and BMDM (ELISA). The class given is cell-based, mouse. The conditions noted are these: 24 h. As for the experimental part:
as §1
After 24 h incubation, the cells were collected, resuspended in staining buffer, incubated with Fc-blocking antibody for 15 min at 4° C., labeled with anti-mouse CD11c, CD86, CD40, and MHC-II antibodies for 20 min at 4° C., and analyzed by the BD Accuri C6 Flow Cytometer. […] After 24 h, the media were analyzed for IL-1β and TNF-α by ELISA (Invitrogen, Carlsbad, CA) according to the manufacturer's protocols.
(In an ELISA, binding on a coated surface is turned into a signal by an enzyme label.)

Data set [5] deals with B16F10 cells. The settings on record: 24 h incubation.
Data set [6] deals with CT26 and B16F10 cells. The data set can be described thus: CRT expression in tumor cells. The class given is cell-based, mouse. As for the experimental part:
2×10^5 CT26 or B16F10 cells were seeded in a 6-well plate overnight. […] After 6 h or 24 h, the cells were collected, resuspended in staining buffer, incubated with anti-mouse CD16/32 antibody to block non-specific binding of the immunoglobulin to Fc receptors, and stained with Alexa Fluor 488-conjugated anti-CRT monoclonal antibody (ab196158, Abcam). The cells were incubated with 0.5 μg/mL propodium iodide for 1 min prior to the analysis with the BD Accuri C6 Flow Cytometer. For visualizing CRT exposure, 2×10^5 CT26 or B16F10 cells were seeded in a confocal dish, incubated with different treatments for 24 h, washed, stained in the same manner as above, and fixed with 4% paraformaldehyde. Confocal images of the fixed cells were taken with the Nikon A1R confocal microscope (Nikon America Inc., Melville, NY) after brief staining with 2 μg/mL Hoechst 33342.

For data set [7], the target named is T2, TLR-4 (Homo sapiens, UniProt O00206).
T2 construct: host or cells: THP1-XBlue-MD2-CD14 cells
T2 sequence (O00206 24-839): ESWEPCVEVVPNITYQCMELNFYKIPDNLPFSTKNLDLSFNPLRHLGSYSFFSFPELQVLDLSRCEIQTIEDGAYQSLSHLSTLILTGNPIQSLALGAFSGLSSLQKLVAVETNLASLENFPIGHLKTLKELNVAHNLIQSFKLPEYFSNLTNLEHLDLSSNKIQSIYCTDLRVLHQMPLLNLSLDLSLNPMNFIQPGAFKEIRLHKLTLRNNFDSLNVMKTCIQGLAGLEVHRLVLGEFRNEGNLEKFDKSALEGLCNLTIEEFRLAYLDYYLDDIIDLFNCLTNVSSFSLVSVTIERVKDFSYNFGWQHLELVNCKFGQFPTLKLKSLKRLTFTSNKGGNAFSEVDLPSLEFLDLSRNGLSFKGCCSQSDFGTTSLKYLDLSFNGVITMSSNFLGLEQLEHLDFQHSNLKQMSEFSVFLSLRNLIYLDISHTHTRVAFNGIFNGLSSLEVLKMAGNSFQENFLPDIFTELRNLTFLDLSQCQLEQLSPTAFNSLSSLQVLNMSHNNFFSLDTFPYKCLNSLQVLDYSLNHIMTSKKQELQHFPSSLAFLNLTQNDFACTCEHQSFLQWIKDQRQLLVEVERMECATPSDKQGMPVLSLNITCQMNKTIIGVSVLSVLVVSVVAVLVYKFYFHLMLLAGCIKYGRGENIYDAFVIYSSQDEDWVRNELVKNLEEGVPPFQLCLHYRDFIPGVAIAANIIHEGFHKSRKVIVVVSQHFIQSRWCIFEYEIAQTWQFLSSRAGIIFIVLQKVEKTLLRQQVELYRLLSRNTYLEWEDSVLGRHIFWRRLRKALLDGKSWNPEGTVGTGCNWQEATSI
T2 sequence (Q9Y6Y9 17-160 partner limits assumed): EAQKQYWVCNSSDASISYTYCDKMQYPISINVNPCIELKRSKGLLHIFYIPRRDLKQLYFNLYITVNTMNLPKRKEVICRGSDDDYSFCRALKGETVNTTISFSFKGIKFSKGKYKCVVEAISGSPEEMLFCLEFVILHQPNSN
Description: TLR-4 activation assay, THP1-XBlue-MD2-CD14 reporter cells (SEAP). The settings on record: at comparable concentrations. The class given is cell-based. The procedure:
as §2

Data set [8] concerns DCs or BMDMs co-cultured with CT26 or B16F10 cells. The settings on record: PTX-pretreated CT26 or B16F10 cells, with 7 μg/mL 2E′. The procedure:
CT26 or B16F10 cancer cells were stained with Cell Tracker Green (Invitrogen, Carlsbad, CA) for 1 h and treated with 5 μg/mL PTX for 24 h. […] The co-cultured cells were collected, resuspended in staining buffer, and analyzed by the BD Accuri C6 Flow Cytometer or BD LSRFortessa Flow Cytometer (San Jose, CA, USA). DCs taking up the PTX-treated cancer cells (cancer cell^+ DC or macrophages) was quantified as the percentage of double-positive cells in Cell-Tracker Deep Red-stained BMDC, JAWSII DC or BMDM, and the phagocytized cancer cells as the percentage of double-positive cells in Cell Tracker Green-stained cancer cells.

In data set [9] the test system is CT26 tumors. Description: Antitumor effects in Balb/c mice with bilateral CT26 tumors. The settings on record: single IT injection, 1 mg 2E′ (+0.2 mg PTX) per mouse. Format: in vivo. As for the experimental part:
Tumors were established in both flanks simultaneously by subcutaneous inoculation. 1×10^6 of CT26 cells were innoculated in the flank of the right hind limb, and 3×10^5 of CT26 cells in the left flank of the same mouse. […] The sizes of the treated tumor and the non-treated tumor on the left side were measured with a digital caliper every other day, and tumor volumes were calculated as (width^2×length)/2.

For data set [10], the system named is BMDCs and JAWSII DCs. The data set can be described thus: BMDC and JAWSII DC stimulation (maturation markers, flow cytometry). Format: cell-based, mouse. A general note: In flow cytometry, cells or beads pass a laser one at a time.
Data set [11] concerns CT26 tumors. Description: Antitumor effects in Balb/c mice with CT26 tumors and delayed rechallenge(s) of live cells. The class given is in vivo. An excerpt: Tumor growth was monitored as described above. To test whether antitumor immunity was established, the mice surviving with complete tumor remission by 30 days from the treatment were rechallenged with 1×10^5 live CT26 cells on the contralateral flank. The mice resistant to the first rechallenge were challenged again with 2×10^6 live CT26 cells on 60 days from the treatment. In two separate experiments, surviving Balb/c mice were rechallenged once on 6 or 17 days after the treatment.

Data set [12] deals with CT26 cells. Description: Cytotoxicity, MTT assay. The class given is cell-based, mouse. As for the experimental part: CT26 cells, B16F10 cells, BMDC, or splenocytes were seeded in a 96 well plate at a density of 8,000 cells per well (CT26, B16F10) or 15,000 cells per well (BMBCs, splenocytes). […] After incubation for another 24 h, the cell cytotoxicity was measured by the MTT assay (CT26, B16F10) or propidium iodide (PI) staining (BMDC, splenocytes). […] The values of CI<1, CI=1, and CI>1 represent synergy, additivity, and antagonism, respectively^53.

T1 sequence (Q9JLF7 27-859): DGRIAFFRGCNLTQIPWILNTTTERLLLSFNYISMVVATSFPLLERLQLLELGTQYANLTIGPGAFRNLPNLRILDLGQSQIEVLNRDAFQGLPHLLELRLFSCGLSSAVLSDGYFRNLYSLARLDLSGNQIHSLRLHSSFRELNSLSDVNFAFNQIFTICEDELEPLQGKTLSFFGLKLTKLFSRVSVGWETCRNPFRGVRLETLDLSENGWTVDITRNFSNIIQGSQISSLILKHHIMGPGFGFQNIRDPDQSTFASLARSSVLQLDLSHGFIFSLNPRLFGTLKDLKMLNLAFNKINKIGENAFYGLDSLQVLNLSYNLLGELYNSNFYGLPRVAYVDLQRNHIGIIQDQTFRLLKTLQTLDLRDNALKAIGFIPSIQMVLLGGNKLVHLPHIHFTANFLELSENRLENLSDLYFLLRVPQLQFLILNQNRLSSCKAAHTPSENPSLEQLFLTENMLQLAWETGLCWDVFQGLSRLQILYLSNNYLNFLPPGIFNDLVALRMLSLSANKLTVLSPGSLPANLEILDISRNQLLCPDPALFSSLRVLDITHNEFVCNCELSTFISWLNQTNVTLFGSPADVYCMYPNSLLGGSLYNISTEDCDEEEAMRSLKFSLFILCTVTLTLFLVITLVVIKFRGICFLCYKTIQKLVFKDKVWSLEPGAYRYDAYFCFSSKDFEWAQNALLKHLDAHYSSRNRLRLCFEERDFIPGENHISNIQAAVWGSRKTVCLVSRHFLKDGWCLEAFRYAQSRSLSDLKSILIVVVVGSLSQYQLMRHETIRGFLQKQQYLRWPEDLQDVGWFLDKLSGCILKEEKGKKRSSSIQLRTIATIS

Turning to `CC(=O)O[C@H]1C(=O)[C@@]2(C)[C@H]([C@H](OC(=O)c3ccccc3)[C@]3(O)C[C@H](OC(=O)[C@H](O)[C@@H](NC(=O)c4ccccc4)c4ccccc4)C(C)=C1C3(C)C)[C@]1(OC(C)=O)CO[C@@H]1C[C@@H]2O` [PTX, paclitaxel], the cytotoxicity to splenocytes result in data set [1] is given as “did not show significant cytotoxicity”. Further, the “cytotoxicity to BMDCs” value in data set [2] is “did not show significant cytotoxicity”.
On to “Polyethyleneimine-Lithocholic Acid Conjugate [2E′]”, for which the TLR-5 signaling entry in [3] is “activated TLR-5 signaling”. The “TNF-α and IL-1β production/secretion” value in data set [4] is listed as “promoted the production”. For the same compound, in data set [5], the “toxicity to B16F10 cells relative to BMDCs” value was “more toxic to CT26 and B16F10 cells than to bone marrow-derived DCs”. Also, the “cell surface calreticulin (CRT) exposure” value in data set [6] is recorded as “exposed the cell surface calreticulin (CRT)”. Also, in [7], the TLR-4 signaling entry was “Neither 2E′ nor PEI activated TLR-4 signaling”. Further, the “fractions of DCs or BMDMs taking up cancer cells and of cancer cells taken up” value in [8] is recorded as “substantially increased”. Moreover, in data set [9], the “growth of untreated distant tumors vs D5W” value is reported as “the difference was insignificant” and the “mice with complete regression (CR) of the treated tumors” value is reported as 60%. Besides, the “maturation of DCs” value in [10] (BMDCs, JAWSII DCs, 24 h) was “induced the maturation of BMDCs and JAWSII DCs”. Further, in data set [10] (all tests: DC maturation, TNF-α/IL-1β, TLR-5, CRT), the “immunostimulatory responses relative to PEI” value was “induced greater responses than PEI”. The “mice with CR (tumor-free)” value in data set [11] (1 mg 2E′, 0.2 mg/mL PTX, 0.67 mg siRNA, single IT, n=8) was determined as 50%. Besides, the “animals with CR of the treated tumors” value in [11] (1.4 mg 2E′ (+0.2 mg PTX) per mouse, single IT) was determined as 40%. In data set [11] (1.4 mg 2E′ (+0.2 mg PTX), rechallenge with live CT26 cells day 17), the “tumor-free mice in which growth of rechallenged tumor was prevented” value was “one of the two”. The “mice with growth of primary tumors inhibited” value in [11] (2.7 mg 2E′ (+0.4 mg PTX) per mouse, single IT) amounted to 57%. In addition, in [11] (2.7 mg 2E′ (+0.4 mg PTX), distant tumor inoculated 6 days after treatment), the “mice with no tumor growth of untreated distant tumor” value was 57%. The “tumor growth after second rechallenge” value in [11] (2×10^6 live CT26 cells) is reported as “exponential tumor growth in 10-15 days after the second challenge”. For the same compound, the “toxicity to CT26 cells relative to normal splenocytes” value in data set [12] is on record as “greater toxicity to CT26 cells than normal splenocytes”. Moreover, the “toxicity to CT26 cells relative to BMDCs” value in data set [12] (24 h incubation) was “more toxic to CT26 and B16F10 cells than to bone marrow-derived DCs”.
